Measured values published in US20220252611A1 (priority 2019, published 2022).

Tests used:
[1] = system: alpha 2 adrenergic receptor; experiment: Simultaneous MS binding assay, alpha 2 adrenergic receptor in rat cortex; conditions: multiplexed with prazosine, FIG. 3A
Procedure: (§1) FIG. 3A is a graph showing a simultaneous binding experiment with alpha1 and alpha 2 beta-adrenoceptors. The target molecules are comprised in rat cortex, which contains both alpha 1 and alpha 2 beta adrenoceptors. The test compound is WB4101 and the ligands are prazosine and RX821002.
(§2) This example used target molecule comprising both alpha 1 and alpha 2 beta adeno receptors incubated with WB4101 (test compound) in the presence prazosine (ligand, or “marker” for alpha 1) and RX821002 (ligand, or “marker” for alpha 2) as shown in FIG. 3A. In FIG. 3B, yohimbine (test compound) was tested in the presence of in the presence prazosine (marker for alpha 1) and RX821002 (marker for alpha 2). The signals are indicated ns for non-specific.
(§3) Rat cortexes from Wistar male rats were harvested and transferred to 50 mM Tris-HCl (pH, 7.4) and homogenized by a polyton. […] The pellet was finally resuspended in a smaller volume of lyses buffer and the final protein concentration was determined according to the Bradford method using bovine serum albumin as a standard. […]
(§4) The filters were dried for one hour at 50° C. and cooled to room temperature before elution of ligands using a acetonitrile (contained 100 μM of antipyrine as an internal standard) via a vacuum manifold. Relative quantification of ligand in each sample was performed by UHPLC-MS-MS, the ratio area of ligand and internal standard was used. […]

[2] = system: alpha 1 adrenergic receptor; experiment: Simultaneous MS binding assay, alpha 1 adrenergic receptor in rat cortex; conditions: multiplexed with RX821002, FIG. 3A
Procedure: as §1, §2, §3, §4

[3] = molecular target: sodium channel (Na+) site 2 receptor; experiment: MS binding assay of sodium channel, batrachotoxin as ligand, UHPLC-MS/MS; conditions: rat cortex membrane 200 μg/well, 60 minutes at 37° C.; second value column of Table 4 (SNR 8), taken as MS binding
sodium channels = experiment: Radioligand binding assay of sodium (Na) channel; conditions: rat cortex sodium channels; first value column of Table 4 (SNR 6), taken as radioligand binding

COC1(C2=NCCN2)COc2ccccc2O1 (stereo not shown) [RX821002]
specific binding to alpha 2 adrenergic receptor [1]: shown specifically to bind

COc1cc2nc(N3CCN(C(=O)c4ccco4)CC3)nc(N)c2cc1OC [prazosine]
specific binding to alpha 1 adrenergic receptor [2]: shown specifically to bind

Batrachotoxin
EC50 [3]: 143 nM
Kd (sodium channels): 91 nM
